From patent US6693072B2, “Elastase inhibitors” (Aventis Pharmaceuticals Inc., priority 1994, dated 2004)
pKi: −log10 of the molar value.

How the values were obtained:
[1] = target: T1, human neutrophil elastase (Homo sapiens, UniProt P08246); experiment: Human neutrophil elastase in vitro inhibition assay, N-MeOSuc-Ala-Ala-Pro-Val-p-nitroanilide substrate; format: biochemical; settings: for human neutrophil elastase, using N-MeOSucAlaAlaProVal-pNA as substrate; enzyme purified from human sputum
T1 construct: Enzyme is purified from human sputum, although recently it has become commercially available; from tissue; host or cells: human sputum
T1 sequence (P08246 30-247 limits assumed): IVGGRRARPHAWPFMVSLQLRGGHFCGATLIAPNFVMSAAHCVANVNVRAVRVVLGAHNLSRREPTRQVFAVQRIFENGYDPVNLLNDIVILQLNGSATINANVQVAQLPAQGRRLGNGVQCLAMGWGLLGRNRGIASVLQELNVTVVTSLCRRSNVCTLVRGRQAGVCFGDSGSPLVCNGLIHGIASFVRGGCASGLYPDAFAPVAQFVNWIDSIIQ
Protocol: Human neutrophil elastase is assayed in vitro using N-MeOSuc-[…]-nitroanilide, available commercially, as substrate. The assay buffer, pH and assay techniques are similar to those described by Mehdi, et al., Biochemical and Biophysical Research Communications, 166, 595 (1990). Enzyme is purified from human sputum, although recently it has become commercially available. Kinetic characterization of immediate inhibitors is by means of the Dixon plot, whereas the characterization of slow- and/or tight-binding inhibitors used data analysis techniques reviewed by Williams and Morrison. The synthesis and analytical use of a highly sensitive and convenient substrate of elastase is described in J. Bieth, B. Spiess and C. G. Wermuth, Biochemical Medicine, 11 (1974)350-375.

[2] = target: human neutrophil elastase (human) (UniProt P08246); experiment: in vitro enzyme inhibition kinetics of human neutrophil elastase, substrate N-MeOSuc-Ala-Ala-Pro-Val-p-nitroanilide

Molecule	Ki [1] [nM]	pKi [2]
CC(C)C(NC(=O)C1CCCCN1C(=O)[C@@H](NC(=O)c1ccc(C(=O)N2CCOCC2)cc1)C(C)C)C(=O)C(F)(F)C(F)(F)F (mixture of isomers) [MDL 105,759, N-[4-(4-morpholinylcarbonyl)benzoyl]-L-valyl-N′-[3,3,4,4,4-pentafluoro-1-(1-methylethyl)-2-oxobutyl]-D,L-2-pipecolinamide]	150	
CC(C)C(NC(=O)[C@H]1CCN1C(=O)[C@@H](NC(=O)c1ccc(C(=O)N2CCOCC2)cc1)C(C)C)C(=O)C(F)(F)C(F)(F)F (stereo partly drawn) [MDL 104,238, N-[4-(4-morpholinylcarbonyl)benzoyl]-L-valyl-N′-[3,3,4,4,4-pentafluoro-1-(1-methylethyl)-2-oxobutyl]-L-2-azetamide]	34	
CC(C)C(NC(=O)[C@H]1C[C@@H](OCc2ccccc2)CN1C(=O)[C@@H](NC(=O)c1ccc(C(=O)N2CCOCC2)cc1)C(C)C)C(=O)C(F)(F)C(F)(F)F (stereo partly drawn) [MDL 104,865, N-[4-(4-morpholinylcarbonyl)benzoyl]-L-valyl-N′-[3,3,4,4,4-pentafluoro-1-(1-methylethyl)-2-oxobutyl]-trans-4-benzyloxyprolinamide]	20	
N-[4-(4-morpholinylcarbonyl)benzoyl]-L-valyl-N'-[3,3,4,4,4-pentafluoro-1-(1-methylethyl)-2-oxobutyl]-trans-4-acetoxyprolinamide (peptide)		7.40
